Test results from patent US8907076B2, “Mycobacterial peptide deformylase” (Council of Scientific and Industrial Research, priority 2006, dated 2014).

Columns and labels:
[1] = system: endogenous PDF protein; type: cell-based, Mycobacterium smegmatis
[2] = system: E. coli; assay: Growth of E. coli culture with antisense PS-ODN (colony forming units); type: cell-based, Escherichia coli; settings: 10 μM PS-ODN, Lauria-Bertani medium; colony forming units vs untreated
Procedure: Further, to ensure that PS-ODN1 permeabilized within the M. smegmatis cells, PS-ODN1 were conjugated with 3′Flourescein label and used for the treatment of mycobacterial culture (˜1×10^5 cells of M. smegmatis were incubated with 10 μM PS-ODNs in 3 ml 7H9 Middlebrook broth supplemented with 10% ADC and grown at 37° C./200 rpm for 24 hrs). […] Since PS-ODN1 was mycobacteria specific, in E. coli where this insertion sequence is absent, when culture was treated with 10 μM PS-ODN1 had no effect on its growth. (FIG. 7, right panel).

[3] = system: Mycobacterium smegmatis strain mc^2155; assay: Growth profile of M. smegmatis culture with antisense PS-ODNs (OD600 and colony forming units); settings: 10 μM PS-ODN, 24 h, 7H9 Middlebrook broth

## PS-ODN1: 5′ phosphothiorate modified antisense oligodeoxyribonucleotide spanning bases 219-249 of M. tuberculosis def (insertion region); probably SEQ ID NO: 14 (antisense CGGATTGATGACCACACCGCGTCGGCGGGCGGTCAT; DNA, backbone and methylation of C not given here; phosphorothioate modified at 5'; listed as Mycobacterium tuberculosis)
[1]
  level of expression of endogenous PDF protein compared to untreated control: significant reduction
[2]
  effect on growth profile of E. coli: no effect
[3]
  decrease in growth of M. smegmatis compared to the untreated culture: five-fold decrease
